Experimental findings from ChEMBL document CHEMBL1136518, “Potent, selective inhibitors of protein tyrosine phosphatase 1B” (Bioorg Med Chem Lett, 2003) are described below.

Assay [1] concerns the target T1, Tyrosine-protein phosphatase non-receptor type 2 (Homo sapiens, UniProt P17706).
T1 sequence (P17706 whole entry): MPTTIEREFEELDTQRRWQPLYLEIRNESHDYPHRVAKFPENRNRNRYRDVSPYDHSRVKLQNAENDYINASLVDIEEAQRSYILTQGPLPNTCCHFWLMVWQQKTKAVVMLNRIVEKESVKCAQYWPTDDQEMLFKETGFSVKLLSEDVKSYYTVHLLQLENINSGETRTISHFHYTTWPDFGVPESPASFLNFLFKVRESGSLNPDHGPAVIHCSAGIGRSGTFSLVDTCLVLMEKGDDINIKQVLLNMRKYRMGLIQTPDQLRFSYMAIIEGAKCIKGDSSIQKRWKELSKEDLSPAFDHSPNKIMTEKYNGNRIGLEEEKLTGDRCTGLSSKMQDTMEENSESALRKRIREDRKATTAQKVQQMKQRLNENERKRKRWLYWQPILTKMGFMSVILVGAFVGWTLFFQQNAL
The assay can be described thus: Inhibitory activity tested against T-cell Protein tyrosine phosphatase 2 (TCPTP).

Assay [2] deals with T2, Tyrosine-protein phosphatase non-receptor type 1 (Homo sapiens, UniProt P18031).
T2 sequence (P18031 whole entry): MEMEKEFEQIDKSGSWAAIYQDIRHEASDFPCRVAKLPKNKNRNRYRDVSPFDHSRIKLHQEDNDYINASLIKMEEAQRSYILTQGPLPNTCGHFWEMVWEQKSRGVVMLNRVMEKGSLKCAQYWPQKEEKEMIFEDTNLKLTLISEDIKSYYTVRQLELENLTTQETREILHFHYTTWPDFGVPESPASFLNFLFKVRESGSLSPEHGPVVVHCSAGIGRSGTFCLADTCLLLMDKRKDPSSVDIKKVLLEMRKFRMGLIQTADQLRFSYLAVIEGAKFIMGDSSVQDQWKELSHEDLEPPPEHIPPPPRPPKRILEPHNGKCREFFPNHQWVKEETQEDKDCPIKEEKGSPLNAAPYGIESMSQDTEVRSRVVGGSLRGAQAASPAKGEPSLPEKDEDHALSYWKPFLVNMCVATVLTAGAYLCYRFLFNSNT
The assay can be described thus: Inhibitory activity tested against Protein-tyrosine phosphatase 1B (PTP1B).

Assay [3] is described as follows: Inhibition of SHP-2 phosphatase.
For assay [4], the target named is T3, Receptor-type tyrosine-protein phosphatase C (Homo sapiens, UniProt P08575).
T3 sequence (P08575 whole entry): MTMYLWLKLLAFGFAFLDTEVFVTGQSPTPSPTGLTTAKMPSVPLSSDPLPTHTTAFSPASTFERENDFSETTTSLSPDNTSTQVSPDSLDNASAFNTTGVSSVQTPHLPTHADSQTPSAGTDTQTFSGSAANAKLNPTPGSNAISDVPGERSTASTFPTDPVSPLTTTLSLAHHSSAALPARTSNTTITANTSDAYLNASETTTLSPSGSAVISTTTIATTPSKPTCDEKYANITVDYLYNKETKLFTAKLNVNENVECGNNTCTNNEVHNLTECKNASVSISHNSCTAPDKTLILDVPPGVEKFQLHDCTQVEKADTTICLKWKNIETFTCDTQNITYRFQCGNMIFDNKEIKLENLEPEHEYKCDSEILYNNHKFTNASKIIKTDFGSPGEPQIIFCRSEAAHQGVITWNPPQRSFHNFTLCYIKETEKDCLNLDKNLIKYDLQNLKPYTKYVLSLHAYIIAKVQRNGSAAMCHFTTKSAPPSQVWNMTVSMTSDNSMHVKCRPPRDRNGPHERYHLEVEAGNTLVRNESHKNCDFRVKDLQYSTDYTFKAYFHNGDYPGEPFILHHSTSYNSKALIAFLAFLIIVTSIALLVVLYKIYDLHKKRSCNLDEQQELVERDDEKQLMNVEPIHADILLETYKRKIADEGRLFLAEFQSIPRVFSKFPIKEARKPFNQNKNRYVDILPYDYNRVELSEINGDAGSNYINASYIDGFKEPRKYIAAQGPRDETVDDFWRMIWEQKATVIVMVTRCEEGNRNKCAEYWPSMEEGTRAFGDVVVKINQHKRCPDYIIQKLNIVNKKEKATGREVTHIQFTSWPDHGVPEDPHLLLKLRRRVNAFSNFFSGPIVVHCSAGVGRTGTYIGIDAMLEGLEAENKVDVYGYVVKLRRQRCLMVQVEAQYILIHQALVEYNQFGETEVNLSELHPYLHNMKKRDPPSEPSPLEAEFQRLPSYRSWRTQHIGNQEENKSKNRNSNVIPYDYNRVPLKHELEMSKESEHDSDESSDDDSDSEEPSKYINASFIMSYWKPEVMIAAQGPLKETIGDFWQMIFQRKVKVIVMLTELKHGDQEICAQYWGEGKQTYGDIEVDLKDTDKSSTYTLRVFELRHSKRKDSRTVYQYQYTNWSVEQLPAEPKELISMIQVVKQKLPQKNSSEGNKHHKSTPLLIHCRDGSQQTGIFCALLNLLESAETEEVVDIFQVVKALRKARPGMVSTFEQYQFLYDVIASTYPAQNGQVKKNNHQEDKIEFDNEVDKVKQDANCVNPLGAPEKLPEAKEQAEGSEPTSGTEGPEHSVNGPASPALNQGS
In words: Inhibition of common leukocyte antigen CD45 phosphatase.

Assay [5] concerns the target T4, M-phase inducer phosphatase 3 (Homo sapiens, UniProt P30307).
T4 sequence (P30307 whole entry): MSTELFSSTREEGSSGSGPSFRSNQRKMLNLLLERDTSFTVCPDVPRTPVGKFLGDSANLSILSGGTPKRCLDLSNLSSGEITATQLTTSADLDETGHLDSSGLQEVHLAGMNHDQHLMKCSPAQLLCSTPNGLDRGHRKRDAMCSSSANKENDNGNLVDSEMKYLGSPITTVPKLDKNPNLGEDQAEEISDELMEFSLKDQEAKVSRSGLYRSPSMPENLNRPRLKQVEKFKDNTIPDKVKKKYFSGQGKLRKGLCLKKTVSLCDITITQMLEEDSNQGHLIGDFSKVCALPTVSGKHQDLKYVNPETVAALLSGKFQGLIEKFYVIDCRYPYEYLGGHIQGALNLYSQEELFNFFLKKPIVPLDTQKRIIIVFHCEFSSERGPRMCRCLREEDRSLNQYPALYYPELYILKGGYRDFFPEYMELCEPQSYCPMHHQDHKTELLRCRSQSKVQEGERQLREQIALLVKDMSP
The assay can be described thus: Inhibition of Cell division cycle 25 (Cdc25) phosphatase.

Assay [6] can be described thus: Inhibition of LAR (leukocyte common antigen-related) phosphatase.

By Ki is commonly meant the equilibrium dissociation constant of an inhibitor or competing ligand from its target. A higher Ki goes with lower affinity. In the case of `CCc1cc(CC(NC(C)=O)C(=O)NCCCCC(=O)O)ccc1N(C(=O)C(=O)O)c1ccccc1C(=O)O` (stereo not given), the Ki in assay [1] worked out at 2.2 µM; in assay [2], 2.5 µM.

On to `CCc1cc(CC(NC(C)=O)C(=O)NCCCCC(=O)N[C@@H](CCC(N)=O)C(=O)O)ccc1N(C(=O)C(=O)O)c1ccccc1C(=O)O` (stereo not given in full), for which the Ki in assay [1] stood at 0.27 µM; in assay [2] it was 0.33 µM.

With `CCc1cc(CC(NC(C)=O)C(=O)NCCCCC(=O)N[C@@H](CCSC)C(=O)OC)ccc1N(C(=O)C(=O)O)c1ccccc1C(=O)O` (stereo not given in full), the figures for the Ki in assay [1] and in assay [2] were 0.67 µM and 0.54 µM, respectively.

As to `CCc1cc(CC(NC(C)=O)C(=O)NCCCCC(=O)NC(Cc2ccccc2)C(N)=O)ccc1N(C(=O)C(=O)O)c1ccccc1C(=O)O` (stereo not given), the Ki in assay [1] came out at 0.7 µM; in assay [2], 1.3 µM.

With `CCc1cc(CC(NC(C)=O)C(=O)NCCCCC(=O)N[C@H](C(=O)O)C2CCCCC2)ccc1N(C(=O)C(=O)O)c1ccccc1C(=O)O` (stereo not given in full), the values for the Ki in assay [1] and in assay [2] were 0.29 µM and 0.25 µM, respectively.

On to `CCCC[C@H](NC(=O)CCCCNC(=O)C(Cc1ccc(N(C(=O)C(=O)O)c2ccccc2C(=O)O)c(CC)c1)NC(C)=O)C(=O)O` (stereo not given in full), for which the Ki in assay [1] came out at 0.24 µM; in assay [2], 0.12 µM.

As for `CCc1cc(CC(NC(C)=O)C(=O)NCc2ccc(OC)cc2)ccc1N(C(=O)C(=O)O)c1ccccc1C(=O)O` (stereo not given), the Ki in assay [1] turned out to be 3.6 µM; in assay [2], 4.7 µM.

In turn, `CCc1cc(CC(NC(C)=O)C(=O)NCCCCC(=O)N[C@H](CCSC)C(=O)O)ccc1N(C(=O)C(=O)O)c1ccccc1C(=O)O` (stereo not given in full) registered a Ki in assay [2] of 1.7 µM.

As to `CCc1cc(CC(NC(C)=O)C(=O)NCCCCC(=O)NCCc2ccccc2)ccc1N(C(=O)C(=O)O)c1ccccc1C(=O)O` (stereo not given), the Ki in assay [1] was found to be 1.4 µM; in assay [2] it was 3.4 µM.

Consider `CCc1cc(CC(NC(C)=O)C(=O)NCCCCC(=O)N[C@@H](CCSC)C(=O)O)ccc1N(C(=O)C(=O)O)c1ccccc1C(=O)O` (stereo not given in full), for which the Ki in assay [3] is 73.2 µM; in assay [4] it was > 300 µM; in assay [5], > 300 µM; in assay [6], 8.75 µM.

In the case of `CCc1cc(CC(NC(C)=O)C(=O)NCCCCC(=O)N[C@H](C(=O)O)C(C)CC)ccc1N(C(=O)C(=O)O)c1ccccc1C(=O)O` (stereo not given in full), the Ki in assay [1] worked out at 0.4 µM; in assay [2] it was 0.43 µM.

For `CCSCC[C@H](NC(=O)CCCCNC(=O)C(Cc1ccc(N(C(=O)C(=O)O)c2ccccc2C(=O)O)c(CC)c1)NC(C)=O)C(=O)O` (stereo not given in full), the Ki in assay [1] was found to be 0.51 µM; in assay [2], 0.13 µM.

For `CCc1cc(CC(NC(C)=O)C(=O)NCc2ccc(Cl)cc2)ccc1N(C(=O)C(=O)O)c1ccccc1C(=O)O` (stereo not given), the values for the Ki in assay [1] and in assay [2] were 1.5 µM and 1.2 µM, respectively.

Turning to `CCc1cc(CC(NC(C)=O)C(=O)NCCCCC(=O)N[C@@H](Cc2ccccc2)C(=O)O)ccc1N(C(=O)C(=O)O)c1ccccc1C(=O)O` (stereo not given in full), the inhibition constant (Ki) in assay [1] came out at 0.16 µM; in assay [2], 0.14 µM.

For the compound `CCc1cc(CC(NC(C)=O)C(=O)NCCCCC(=O)N[C@@H](CCS(C)(=O)=O)C(=O)O)ccc1N(C(=O)C(=O)O)c1ccccc1C(=O)O` (stereo not given in full), the Ki in assay [1] was 0.37 µM; in assay [2], 0.47 µM.

On to `CCc1cc(CC(NC(C)=O)C(=O)NCc2ccc([N+](=O)[O-])cc2)ccc1N(C(=O)C(=O)O)c1ccccc1C(=O)O` (stereo not given), for which the Ki in assay [1] was found to be 0.45 µM; in assay [2], 0.54 µM.

Turning to `CCc1cc(CC(NC(C)=O)C(=O)NCCCCC(=O)N[C@@H](CCCCN)C(=O)O)ccc1N(C(=O)C(=O)O)c1ccccc1C(=O)O` (stereo not given in full), the Ki in assay [1] turned out to be 0.82 µM; in assay [2], 0.71 µM.
